Test results as given in US5439940A, “Benz[e]indene derivatives” (priority 1992, dated 1995).
Read-outs that look alike come from different tables or passages of the source.

Legend:
[1] = system: carrageen-induced paw volume; test: Antiinflammatory effect (carrageen paw, Winter et al.); type: in vivo, rat (Wistar); conditions: po, read-out: Antiinflammatory effect ID30
Experimental: The antiinflammatory effect was investigated on Wistar rats weighing 150-180 g according to the method of Winter et al. 0.1 ml of a 1 percent carrageen suspension was injected subcutaneously into the plantar region of one of the hind paws. The animals were fasted for 12 hours and received drinking water ad libitum. One hour before treatment with the test compound the rats were hydrated orally with 30 ml/kg of tap water. The test compounds and the vehicle were administered p.o. in a volume of 10 ml/kg, then 1 hour later carrageen was applied. The volume of the treated paw was measured by mercury-plethysmometer before and 3 hours after injection in such a way that displacement of the liquid arising from the volume alteration was indicated on a millimeter scale. […] A., Risley, E. A., Nuss, G. W.: Proc. Soc.

[2] = system: acetic acid writhing reactions; test: Analgesic effect (acetic acid writhing, Newbould); type: in vivo, mouse (NMRI); conditions: Mus musculus, 1 h, read-out: Analgesic effect ID50
Experimental: The characteristic "writhing reactions" were counted for a period of 5 minutes, starting from the fifth minute after challenge. […] Each group of animals consisted of at least 10 mice. […]

[3] = Acute toxicity on mice (oral LD50); conditions: mouse, in vivo, 7 days observation, maximal dose 1000 mg/kg
Experimental: Mice belonging to the NMRI strain (body weight 20-25 g, both male and female) were used, 6 to 10 animals for each dose. The test compound was administered orally in a volume of 20 ml/kg. The applied maximal dose was 1000 mg/kg. […] The mice were kept in a plastic cage at room temperature. The animals got tap water and standard mouse fodder ad libitum. The toxicity data were determined by the aid of the method of Litchfield and Wilcoxon [Litchfield, J. T., Wilcoxon, F. W.: J. Pharmacol. Exp. Ther., 96, 99 (1949)].

nicotine spasm = test: Anticonvulsive activity: inhibition of nicotine spasm and lethality; type: in vivo; conditions: Mus musculus, 1 h; mice, oral, one hour before nicotine 1.4 mg/kg i.v.
Experimental: The inhibition of nicotine spasm and lethality was examined on mice according to the method of Stone. One hour after the oral treatment a dosage of 1.4 mg/kg of nicotine is injected intravenously, and the spasm developed as well as the lethality within 1 hour were recorded at both the test and control groups. [Stone, C. C., Mecklenburg, K. L., Torchiana, M. L.: Arch. Int. Pharmacodyn., 117, 419 (1958)].
(§1) The ED50 values were determined according to the method of Litchfield and Wilcoxon.

pentetrazole spasm = test: Anticonvulsive activity: pentetrazole spasm inhibiting test; type: in vivo, mouse (NMRI); conditions: Mus musculus; mice, oral, 1 hour before pentetrazole 125 mg/kg i.p.; read-out: Inhibition of pentetrazole spasm, ED50
Experimental: The pentetrazole spasm inhibiting test was performed according to the modified method of Benziger and Hans. Groups of mice consisting of 6 animals each, belonging to the NMRI strain (body weight: 20-25 g), were treated orally with the compound to be tested and the vehicle without active agent, respectively. I hour after the treatment a dosage of 125 mg/kg of pentetrazole was administered to each animal, intraperitoneally, and the tonic spasm of the lower limb extensor was recorded [Benziger, R., Hans, D.: Arch. Int. Pharmacodyn., 167, 245 (1967)].
as §1

[4] = system: experimental coronary insufficiency; test: Antianginal effect (glanduitrine-induced coronary insufficiency, Nieschultz); type: in vivo, rat (male); conditions: rat, glanduitrine 4 NE/kg i.v., T-wave; for inhibition in vivo at 2 mg/kg: Rat2, iv, read-out: Inhibition in a dose of 2 mg/kg
Experimental: The test was carried out on male rats weighing 180-220 g. The animals were narcotized with the aid of chloralose-urethane. ECG was registered by means of needle electrodes in standard II output. Antianginal effect was tested according to the method of Nieschultz. Experimental coronary insufficiency was induced by administering glanduitrine (4 NE/kg i.v.).

nervus ischiadicus = test: Local analgesic effect (Truant d'Amato); type: in vivo; conditions: 0.2 ml injected around nervus ischiadicus
Experimental: The test was carried out according to the method of Truant d'Amato. 0.2 ml of test material was injected around the nervus ischiadicus in the middle of femur with a needle of 1 cm length. The criterion of analgesic effect was the lack of the motoric control of foot muscles. The duration of effect was registered and the 50 percentile effective concentration (EC50) was calculated on the basis of the dose-effect curve. Lidocain was used as reference substance Truant d'Amato, A. P., Wiedling, S.: Acta Chir. Scand., 116, 351 (1958)].

catalepsy = test: Catalepsy; type: in vivo, rat (Wistar); conditions: rat
Experimental: The extrapyramidal syndrome, the most important side effect limiting the application of the neuroleptic drugs in man, can be produced in experimental animals in the form of catalepsy. Our experiments in 150-160 g Wistar rats were performed according to Morpurgo. The catalepsy, appearing 60 minutes after dosing, was scored as follows. Both forelegs of each animal were put for 10 seconds onto a rubber stopper of 3 cm height, then for additional 10 seconds onto a same stopper of 9 cm height. […] The procedure was repeated in each 30 minutes during four hours, obtaining scores proportional to the degree of the catalepsy. Results were used to calculate the minimum effective dose [MED, the lowest dose resulting statistically significant alteration, c.f.: Morpurgo, C.: Arch. Int.

hexobarbital narcosis = test: Hexobarbital narcosis potentiating effect on mice; type: in vivo, mouse
Experimental: The hexobarbital narcosis potentiating effect was examined on mice. Groups consisting of 6 animals were used for each dose. The animals were treated orally with the test compound, whereby sleeping was induced 1 hour later by administering a 40 mg/kg i.v. dose of hexobarbital both to the test and control groups. […] ED50 values were calculated from the thus-transformed data [Kaergaard Nielsen C. et al., Arch. Int. Pharmacodyn. 2, 170 (1967)].

spontaneous motility = test: Spontaneous motility inhibiting activity (Dews equipment); type: in vivo; conditions: Mus musculus, 0.5 h; oral, beam interruptions within 30 minutes; read-out: Motility inhibiting activity ID50
Experimental: The spontaneous motility inhibiting activity was examined according to the method of Borsy et al. Groups consisting of 3 mice each were treated orally with different doses of the compounds to be tested, then the test animals were placed in a Dews equipment. In this equipment the number of interruptions of infrared beam within 30 minutes was counted. […] [Borsy, J., Csanyi, E., Lazar, I.: Arch. Int.. Pharmacodyn. 124, 1 (1960)].

[5] = system: learned conditioned avoidance reflex; test: Antipsychotic effect: inhibition of conditioned avoidance reflex (shuttle box); type: in vivo, rat (male Wistar)
Experimental: The antipsychotic (neuroleptic) effect was measured by the inhibition of the learned conditioned avoidance reflex. The male Wistar rats used for the study were of 120-150 g bodyweight at the commencement of learning. […] In response to a suitable warning stimulus, in order to avoid the punishing (unconditioned) stimulus, animals within the box passed through the gate from one part over the other. The warning, i.e. conditioned stimulus (CS), a white light (1 Hz) blinking for 15 seconds, was applied at the place of the actual animal existence. The unconditioned stimulus (US), in form of 0.6 mA intensity electric shock, was randomly applied to the paw during the last 5 seconds of the conditioned stimulus. Animal's movement during the CS and US from one part of the box over the other, was defined as avoidance and escape responses, respectively. Both responses ceased the actual stimulus and stopped the trial. The time elapsed until the next trial (intertrial interval, ITI) was 15 seconds. While one experiment was carried out daily, an experiment consisted of 80 trials. Learning efficiency was expressed as percentage of the successful to the total avoidances. […] Dosing was carried out once a week, one hour before the measurement in the shuttle box.

shocks tolerated = test: Anxiolytic effect (Vogel et al.); type: in vivo, rat (male Wistar)
Experimental: The anxiolytic effect was tested by using the method of Vogel et al. Male Wistar rats of 160-180 g bodyweight were kept free of food and drinking water for 24 and 48 hours, respectively. Test and carrier substances were administered intraperitoneally two hours before testing. Animals within the experimental chamber were provided with drinking water through an inserted tube. After the animals' each twenty lapping for water the device emitted a 2 mA intensity electric shock through the drinking tube. During 5 minutes the shocks tolerated by the animals in order to quench their thirst were counted. The effect of treatment was expressed as the % increase of the tolerated shocks. The minimum effective dose (MED) was determined for each test compound [Voqel, J. R., Beer, B., Clody, D. E.: Psychopharmacologia (Berl.) 21, 1 (1971)].

[6] = rat, p.o., 1 hour before carrageen, paw volume 3 hours after
[7] = mice, 0.75% acetic acid one hour after treatment

Question: Which results are given for CC(=O)Oc1ccccc1C(=O)O [Acetylsalicylic acid, reference compound]?
Answer: ED30 ([1]; Rattus norvegicus, 3 h): 62 mg/kg; ED50 [2]: 261 mg/kg

Question: Which LD50 at 168 h [3] does the source give for CCN(CC)CCON=C1CCc2c1ccc1ccccc21 [Example 3, 3-[2-(N,N-Diethylamino)-ethoxyimino]-2,3-dihydro-1H-benz[e]indene] here?
Answer: The LD50 at 168 h was 640 mg/kg.

Question: And the ED50 (nicotine spasm)?
Answer: Its ED50 is 29 mg/kg.

Question: And the ED50 (pentetrazole spasm)?
Answer: The ED50 was 96 mg/kg.

Question: For CC(C)N(CCON=C1CCc2c1ccc1ccccc21)C(C)C [Example 4, 3-[2-(N-1-Methylethyl-2-propylamino)-ethoxyimino]-2,3-dihydro-1H-benz[e]indene], which inhibition in vivo at 2 mg/kg [4] is on record?
Answer: Its inhibition in vivo at 2 mg/kg is 100%.

Question: And the ED50 ([4]; iv)?
Answer: Its ED50 is 0.19 mg/kg.

Question: What about the “Local analgesic effect EC50” value (nervus ischiadicus) of the same compound?
Answer: The value was 0.18%.

Question: What about the LD50 at 168 h [3] of the same compound?
Answer: The LD50 at 168 h was 600 mg/kg.

Question: What about the ED50 (nicotine spasm) of the same compound?
Answer: The ED50 was 4 mg/kg.

Question: For OC(CNC1CC1)CON=C1CCc2c1ccc1ccccc21 (stereo not shown) [Example 17, 3-[3-(Cyclopropylamino)-2-hydroxypropoxyimino]-2,3-dihydro-1H-benz[e]indene], which inhibition in vivo at 2 mg/kg [4] is on record?
Answer: Its inhibition in vivo at 2 mg/kg is 50%.

Question: What about the “Therapeutic index (Catalepsy MED / Conditioned Reflex ID50)” value (catalepsy) of the same compound?
Answer: Its value is 3.8.

Question: What about the “Catalepsy MED” value (catalepsy; scored from 60 minutes after dosing, four hours) of the same compound?
Answer: Its value is 100 mg/kg.

Question: And the ED50 (hexobarbital narcosis; Mus musculus, oral, 1 hour before hexobarbital 40 mg/kg i.v., sleeping time >2.5 times control, read-out: ED50 hexobarbital narcosis potentiation)?
Answer: Its ED50 is 11 mg/kg.

Question: And the “tranquillo-sedative activity rank (in words)” value (hexobarbital narcosis; compared within the structural group)?
Answer: Its value is “the most active member in the structural group”.

Question: What about the ED50 (spontaneous motility) of the same compound?
Answer: Its ED50 is 6 mg/kg.

Question: What about the ED30 [1, 6] of the same compound?
Answer: Its ED30 is 40 mg/kg.

Question: What about the ED50 [2, 7] of the same compound?
Answer: The ED50 was 14 mg/kg.

Question: And the LD50 at 168 h [3]?
Answer: Its LD50 at 168 h is 660 mg/kg.

Question: What about the ED50 ([5]; 1 h, rat, dosing one hour before measurement, read-out: Conditioned reflex ID50) of the same compound?
Answer: The ED50 was 26.3 mg/kg.

Question: And the “character when administered in higher doses (in words)” value ([5]; higher doses)?
Answer: Its value is “neuroleptic”.

Question: And the “antipsychotic effect compared with reference substances (in words)” value ([5]; rat)?
Answer: The value was “superior to Thioridazine and inferior to Chlorpromazine”.

Question: And the minimal effective dose (shocks tolerated; ip, 2 h, rat, intraperitoneal, two hours before testing, read-out: Anxiolytic effect MED)?
Answer: Its minimal effective dose is 0.1 mg/kg.

Question: What about the “anxiolytic effect compared with Chlordiazepoxide and Meprobamate (in words)” value (shocks tolerated; rat) of the same compound?
Answer: The value was “superior to the reference substances by orders of magnitude”.

Question: And the “character in smaller doses (in words)” value (shocks tolerated; smaller doses)?
Answer: The value was “anxiolytic”.

Question: With CC(=O)Nc1ccc(O)cc1 [Paracetamol, reference compound] as the compound, how does the ED30 [1, 6] read?
Answer: The ED30 was 195 mg/kg.

Question: What about the ED50 [2, 7] of the same compound?
Answer: Its ED50 is 421 mg/kg.

Question: With OC(CCN1CCCCC1)(c1ccccc1)C1CCCCC1 (stereo not shown) [Trihexyphenidyl, reference compound] as the compound, how does the ED50 (nicotine spasm) read?
Answer: Its ED50 is 20 mg/kg.
